The structures appear in SMILES notation. Counter-ions that a name gives are not always drawn. Like-named read-outs stand apart in the source and are kept apart here. A value given as a limit tells only on which side of the number the result lay.

For orientation: IC50 means the concentration that gives 50% inhibition.

Data set [1] has as its target recombinant human MMP-13 (Homo sapiens, UniProt P45452). Briefly: biochemical.
The target of data set [2] is T1, recombinant human MMP-1 (Homo sapiens, UniProt P03956).
T1 construct: made in house; host or cells: transfected HT-1080 cells (provided by Dr. Harold Welgus, Washington University)
T1 sequence (P03956 100-469): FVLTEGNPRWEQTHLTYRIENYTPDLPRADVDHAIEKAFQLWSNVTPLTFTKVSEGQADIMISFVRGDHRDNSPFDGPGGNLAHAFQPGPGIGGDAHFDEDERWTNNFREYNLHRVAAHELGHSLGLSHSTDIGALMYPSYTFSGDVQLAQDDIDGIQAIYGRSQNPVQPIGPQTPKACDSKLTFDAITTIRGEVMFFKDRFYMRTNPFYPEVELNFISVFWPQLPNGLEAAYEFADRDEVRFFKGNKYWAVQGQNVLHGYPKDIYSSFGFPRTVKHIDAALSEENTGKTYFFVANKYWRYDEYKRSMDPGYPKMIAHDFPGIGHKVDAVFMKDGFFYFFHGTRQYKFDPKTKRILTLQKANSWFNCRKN
Briefly: biochemical. The conditions noted are these: read-out: MMP-1 IC50.

Data set [3] deals with T2, recombinant human MMP-2 (Homo sapiens, UniProt P08253).
T2 sequence (P08253 110-660): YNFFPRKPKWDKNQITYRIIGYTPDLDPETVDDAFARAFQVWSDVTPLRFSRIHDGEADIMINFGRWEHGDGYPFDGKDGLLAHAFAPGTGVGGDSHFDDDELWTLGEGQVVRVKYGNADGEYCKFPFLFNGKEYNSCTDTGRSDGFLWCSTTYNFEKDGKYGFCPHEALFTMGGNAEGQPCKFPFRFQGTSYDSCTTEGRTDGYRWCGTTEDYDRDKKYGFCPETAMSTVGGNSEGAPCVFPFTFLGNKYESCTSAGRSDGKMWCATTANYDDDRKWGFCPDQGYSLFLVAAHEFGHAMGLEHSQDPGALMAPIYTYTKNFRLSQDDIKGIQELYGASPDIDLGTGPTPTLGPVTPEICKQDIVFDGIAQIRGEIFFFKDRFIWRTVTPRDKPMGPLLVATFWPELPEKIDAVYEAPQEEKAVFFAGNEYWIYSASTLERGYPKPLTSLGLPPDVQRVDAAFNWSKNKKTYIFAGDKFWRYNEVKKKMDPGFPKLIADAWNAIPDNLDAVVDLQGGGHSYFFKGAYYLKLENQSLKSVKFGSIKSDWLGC
Description: biochemical.

Data set [4] deals with recombinant human MMP-9 (Homo sapiens, UniProt P14780). Description: biochemical. Conditions: read-out: MMP-9 IC50.
The subject of data set [5] is TNFα. Briefly: Tumor necrosis factor assay: TNFα ELISA on PMA-stimulated U-937 cell supernatant. The conditions noted are these: Homo sapiens, U-937, read-out: TNFα Release IC50 in micromolar. For orientation: An ELISA detects its analyte on a solid surface through an enzyme-linked reagent.
On the set-up of data set [6]: AUC (0-∞): unit not given beside the values. The conditions noted are these: for t½ Hour: Rat Intravenous 20 mpk.
Setting [7] is: Inhibition Table A, read-out: MMP-13 IC50.
Setting [8] is: Inhibition Table A, read-out: MMP-2 IC50.
Where [9] appears, read: Inhibition Table B, read-out: MMP-13 IC50.
Where [10] appears, read: Inhibition Table B, read-out: MMP-2 IC50.

Chain of recombinant human MMP-9 (P14780 107-707 limits assumed): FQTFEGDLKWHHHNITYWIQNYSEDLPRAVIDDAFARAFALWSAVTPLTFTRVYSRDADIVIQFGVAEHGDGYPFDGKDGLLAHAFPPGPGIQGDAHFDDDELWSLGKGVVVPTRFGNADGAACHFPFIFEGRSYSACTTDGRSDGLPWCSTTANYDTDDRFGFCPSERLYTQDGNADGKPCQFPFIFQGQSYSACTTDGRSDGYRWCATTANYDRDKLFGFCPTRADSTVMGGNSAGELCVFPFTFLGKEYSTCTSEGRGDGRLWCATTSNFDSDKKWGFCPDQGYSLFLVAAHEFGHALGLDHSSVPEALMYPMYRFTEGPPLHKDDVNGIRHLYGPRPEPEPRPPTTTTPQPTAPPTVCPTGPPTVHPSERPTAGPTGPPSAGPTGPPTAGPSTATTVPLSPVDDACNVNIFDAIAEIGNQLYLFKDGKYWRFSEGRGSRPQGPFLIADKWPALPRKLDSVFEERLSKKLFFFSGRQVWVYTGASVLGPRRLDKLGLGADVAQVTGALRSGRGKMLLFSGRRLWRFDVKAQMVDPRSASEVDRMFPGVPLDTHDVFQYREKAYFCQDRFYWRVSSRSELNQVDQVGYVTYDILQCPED

For the compound `O=C(NO)C1(S(=O)(=O)c2ccc(Oc3ccccc3)cc2)CCNCC1` [Example 4], the IC50 in data set [1] (setting [7]) was 0.35 nM; in data set [2] (Inhibition Table A) it was 1090 nM; in data set [3] (setting [8]), 0.23 nM; in data set [4] (Inhibition Table A), 5 nM; in data set [5], more than 50 µM.

`C#CCN1CCC(C(=O)NO)(S(=O)(=O)c2ccc(Oc3ccccc3)cc2)CC1` [Example 6]: the IC50 was 0.25 nM in data set [1] (setting [7]), 327 nM in data set [2] (Inhibition Table A), 0.15 nM in data set [3] (setting [8]) and more than 50 µM in data set [5].

For the compound `C#CCN1CCC(C(=O)NO)(S(=O)(=O)c2ccc(Sc3ccccc3)cc2)CC1` [Example 9], the IC50 in data set [2] (Inhibition Table A) is 9000 nM; in data set [3] (setting [8]), 0.2 nM; in data set [5] it was more than 50 µM.

Consider `C#CCN1CCC(C(=O)NO)(S(=O)(=O)c2ccc(Oc3ccc4c(c3)OCO4)cc2)CC1` [Example 10], for which the half-inhibitory concentration (IC50) is 0.4 nM in data set [1] (setting [7]), 1600 nM in data set [2] (Inhibition Table A) and more than 50 µM in data set [5].

Take `C#CCN1CCC(C(=O)NO)(S(=O)(=O)c2ccc(SC3CCCCC3)cc2)CC1` [Example 13]: the figures for the 50% inhibitory concentration (IC50) in data set [1] (setting [7]), in data set [3] (setting [8]) and in data set [5] were 0.6 nM, 0.4 nM and more than 50 µM, respectively.

Take `O=C(NO)C1(S(=O)(=O)c2ccc(Sc3ccc(F)cc3)cc2)CCN(C2CC2)CC1` [Example 27]: the IC50 in data set [1] (setting [7]) is 0.45 nM; in data set [2] (Inhibition Table A), more than 10000 nM; in data set [3] (setting [8]), 0.4 nM; in data set [4] (Inhibition Table A), 4 nM; in data set [5], more than 80 µM.

Turning to `COCCN1CCC(C(=O)NO)(S(=O)(=O)c2ccc(Sc3ccccc3)cc2)CC1` [Example 35, N—hydroxy-1-(2-methoxyethyl)-4-[[4-(phenylthio)phenyl]-sulfonyl]-4-piperidinecarboxamide, Monohydrochloride], the IC50 in data set [1] (setting [9]) is 0.5 nM; in data set [2] (Inhibition Table B), more than 10000 nM; in data set [3] (setting [10]) it was 0.3 nM; in data set [4] (Inhibition Table B) it was 3 nM; in data set [5], more than 80 µM.

As for `CC(=O)N1CCC(C(=O)NO)(S(=O)(=O)c2ccc(Sc3ccccc3)cc2)CC1.Cl` [Example 36, 1-acetyl-N-hydroxy-4-[[4-(phenylthio)phenyl]sulfonyl]-4-piperidinecarboxamide, Monohydrochloride], the IC50 in data set [1] (setting [9]) was 0.6 nM; in data set [2] (Inhibition Table B), 7300 nM; in data set [3] (setting [10]), 0.4 nM; in data set [4] (Inhibition Table B), 8 nM. In addition, the “t½ Hour” value in data set [6] stood at 0.65 h.

Take `Cl.O=C(NO)C1(S(=O)(=O)c2ccc(Oc3ccc(-n4cncn4)cc3)cc2)CCS(=O)(=O)CC1` [Example 53, Tetrahydro-N-hydroxy-4-[[4-[4-(1H-1,2,4-triazol-1-yl)phenoxy]-phenyl]-sulfonyl]-2H-thiopyran-4-carboxamide 1,1-dioxide, Monohydrochloride]: the half-maximal inhibitory concentration (IC50) in data set [1] (setting [9]) was 1.5 nM; in data set [2] (Inhibition Table B), more than 10000 nM; in data set [3] (setting [10]) it was 0.3 nM; in data set [4] (Inhibition Table B), 92 nM. The “t½ Hour” value in data set [6] was determined as 0.97 h.

Take `O=C(NO)C1(S(=O)(=O)c2ccc(Oc3ccc(OC(F)(F)F)cc3)cc2)CCOCC1` [Example 69]: in data set [6] (rat, in vivo), the “AUC (0-∞)” value turned out to be 63.78 and the “Blood Level @ 3 min” value stood at 44000 ng/mL. The “Blood Level @ 3 min” value in data set [6] (rat, in vivo, iv, 20 mg/kg) worked out at 44000 ng/mL. Further, the IC50 in data set [5] was more than 80 µM.

As to `O=C(NO)C1(S(=O)(=O)c2ccc(Sc3ccc(OC(F)(F)F)cc3)cc2)CCOCC1` [Example 73, tetrahydro-N-hydroxy-4-[[4-[4-(trifluoromethoxy)phenylthio]-phenyl]-sulfonyl]-2H-pyran-4-carboxamide], the 50% inhibitory concentration (IC50) in data set [1] was less than 0.1 nM; in data set [2] (Inhibition Table B) it was 1140 nM; in data set [3] (MMP-2 IC50 (nM)) it was less than 0.1 nM; in data set [4] (Inhibition Table B), 0.2 nM. Moreover, in data set [6] (rat, in vivo, po, 20 mg/kg), the “Blood Level @ 6 hr” value amounted to 372 ng/mL.

Turning to `Cl.O=C(NO)C1(S(=O)(=O)c2ccc(Oc3ccc(Cl)cc3)cc2)CCNCC1` [Example 93, 4-[[4-(4-chlorophenoxy)-phenyl]sulfonyl]-N-hydroxy-4-piperidinecarboxamide, Monohydrochloride], the IC50 came to 0.7 nM in data set [1] (setting [9]), 8000 nM in data set [2] (Inhibition Table B), 0.4 nM in data set [3] (setting [10]) and 3.5 nM in data set [4] (Inhibition Table B). In addition, the “t½ Hour” value in data set [6] is 1.81 h.

For the compound `O=C(NO)C1(S(=O)(=O)c2ccc(Sc3ccccc3)cc2)CCOCC1` [Example 95, Tetrahydro-N-hydroxy-4-[[4-(phenylthio)phenyl]sulfonyl]-2H-pyran-4-carboxamide], the half-maximal inhibitory concentration (IC50) in data set [1] (setting [9]) was 0.5 nM; in data set [2] (Inhibition Table B), more than 10000 nM; in data set [3] (setting [10]), 1 nM; in data set [4] (Inhibition Table B), 3.6 nM; in data set [5], more than 50 µM. The “t½ Hour” value in data set [6] amounted to 1.06 h.

Turning to `O=C(NO)C1(S(=O)(=O)c2ccc(Sc3ccc(F)cc3)cc2)CCOCC1` [Example 103, 4-[[4-[(4-fluorophenyl)-thio]phenyl]sulfonyl]tetrahydro-N-hydroxy-2H-pyran-4-carboxamide], the half-inhibitory concentration (IC50) in data set [1] (setting [9]) was 0.7 nM; in data set [2] (Inhibition Table B), more than 10000 nM; in data set [3] (setting [10]) it was 0.8 nM; in data set [4] (Inhibition Table B) it was 10 nM. In addition, the “t½ Hour” value in data set [6] was 1.10 h.

Consider `Cl.O=C(NO)C1(S(=O)(=O)c2ccc(Sc3ccncc3)cc2)CCOCC1` [Example 104, Tetrahydro-N-hydroxy-4-[[4-(4-pyridinylthio)phenyl]sulfonyl]-2H-pyran-4-carboxamide, Monohydrochloride], for which the half-maximal inhibitory concentration (IC50) is 0.65 nM in data set [1] (setting [9]), more than 10000 nM in data set [2] (Inhibition Table B), 1.5 nM in data set [3] (setting [10]) and 42.8 nM in data set [4] (Inhibition Table B). Further, in data set [6], the “t½ Hour” value was determined as 0.66 h.

As for `O=C(NO)C1(S(=O)(=O)c2ccc(Oc3ccccc3)cc2)CCSCC1` [Example 109], the IC50 came out at 0.3 nM in data set [1] (setting [9]), 500 nM in data set [2] (Inhibition Table B), 0.1 nM in data set [3] (setting [10]) and 0.7 nM in data set [4] (Inhibition Table B). For the same compound, the “t½ Hour” value in data set [6] amounted to 1.12 h.

Take `O=C(O)CNc1ccc(Oc2ccc(S(=O)(=O)C3(C(=O)NO)CCSCC3)cc2)cc1` [Example 117, tetrahydro-N-hydroxy-4-[[4-[4-hydroxyphenyl Glycine)]phenyl] Sulfonyl 2H-thiopyran-4-carboxamide]: the IC50 in data set [1] (setting [9]) stood at 4.8 nM; in data set [2] (Inhibition Table B), 3700 nM; in data set [3] (setting [10]), 0.6 nM; in data set [4] (Inhibition Table B), 45.4 nM. In data set [6], the “t½ Hour” value stood at 0.78 h.

Take `NCC(=O)Nc1ccc(Sc2ccc(S(=O)(=O)C3(C(=O)NO)CCSCC3)cc2)cc1` [Example 118, tetrahydro-N-hydroxy-4-[[4-[4-hydroxyphenylglycine))phenyl] Sulfonyl 2H-thiopyran-4-carboxamide]: the IC50 was found to be 0.8 nM in data set [1] (setting [9]), 2850 nM in data set [2] (Inhibition Table B), 0.3 nM in data set [3] (setting [10]) and 50 nM in data set [4] (Inhibition Table B). Further, the “t½ Hour” value in data set [6] was determined as 1.85 h.

In the case of `CC(C)c1ccc(Oc2ccc(S(=O)(=O)C3(C(=O)NO)CCOCC3)cc2)cc1` [Example 125], the half-inhibitory concentration (IC50) was 0.5 nM in data set [1] (setting [9]), more than 10000 nM in data set [2] (Inhibition Table B), 0.4 nM in data set [3] (setting [10]) and 7 nM in data set [4] (Inhibition Table B). In data set [6], the “t½ Hour” value stood at 0.73 h.

Turning to `O=C(NO)C1(S(=O)(=O)c2ccc(Oc3ccc(C(F)(F)F)cc3)cc2)CCOCC1` [Example 379], the “t½ Hour” value in data set [6] is 1.74 h. For the same compound, in data set [5], the half-inhibitory concentration (IC50) was found to be 80 µM.

The values above are taken from patent US20010039287A1, “AROMATIC SULFONE HYDROXAMIC ACID METALLOPROTEASE INHIBITOR” (priority 1997, published 2001).
